The NIST ThermoML archive (doi:10.1021/acs.jced.8b00975)
Numbers after ± are expanded uncertainties.

Test: xn = mol fraction of the nth substance listed
Settings: Liquid, Vibrating tube method

C=C(C)C(=O)OCCN(C)C [2-(dimethylamino)ethyl methylpropenoate] + CCO
mass density [kg/m3]
Settings	100 kPa	5000 kPa	10000 kPa	15000 kPa	20000 kPa	25000 kPa	30000 kPa	35000 kPa
293.15 K, x1 = 0.0298	802.7 ± 0.51	807.13 ± 0.52	811.22 ± 0.53	815.04 ± 0.54	818.66 ± 0.55	822.14 ± 0.56	825.55 ± 0.57	828.95 ± 0.58
293.15 K, x1 = 0.0598	814.88 ± 0.51	819.12 ± 0.52	823.12 ± 0.52	826.9 ± 0.53	830.51 ± 0.54	834 ± 0.55	837.41 ± 0.56	840.78 ± 0.58
293.15 K, x1 = 0.0999	829.26 ± 0.51	833.46 ± 0.52	837.4 ± 0.52	841.12 ± 0.53	844.67 ± 0.54	848.1 ± 0.55	851.44 ± 0.56	854.75 ± 0.57
293.15 K, x1 = 0.1997	856.9 ± 0.51	861.05 ± 0.52	864.9 ± 0.52	868.5 ± 0.53	871.93 ± 0.53	875.24 ± 0.54	878.49 ± 0.54	881.75 ± 0.55
293.15 K, x1 = 0.3001	876.95 ± 0.51	880.93 ± 0.52	884.66 ± 0.52	888.19 ± 0.52	891.58 ± 0.53	894.86 ± 0.53	898.09 ± 0.54	901.32 ± 0.54
293.15 K, x1 = 0.3966	891.39 ± 0.51	895.28 ± 0.52	898.93 ± 0.52	902.38 ± 0.52	905.7 ± 0.53	908.93 ± 0.53	912.15 ± 0.54	915.39 ± 0.54
293.15 K, x1 = 0.4472	897.49 ± 0.51	901.33 ± 0.52	904.98 ± 0.52	908.47 ± 0.52	911.83 ± 0.53	915.1 ± 0.53	918.3 ± 0.53	921.47 ± 0.54
293.15 K, x1 = 0.4982	902.96 ± 0.51	906.87 ± 0.52	910.51 ± 0.52	913.95 ± 0.52	917.24 ± 0.53	920.43 ± 0.53	923.58 ± 0.53	926.74 ± 0.54
293.15 K, x1 = 0.55	907.68 ± 0.51	911.66 ± 0.52	915.32 ± 0.52	918.74 ± 0.53	921.98 ± 0.53	925.14 ± 0.53	928.28 ± 0.53	931.5 ± 0.54
293.15 K, x1 = 0.5964	911.67 ± 0.52	915.5 ± 0.52	919.12 ± 0.52	922.56 ± 0.53	925.87 ± 0.53	929.09 ± 0.53	932.25 ± 0.54	935.39 ± 0.54
293.15 K, x1 = 0.6982	918.77 ± 0.52	922.55 ± 0.52	926.15 ± 0.53	929.6 ± 0.53	932.93 ± 0.53	936.16 ± 0.54	939.33 ± 0.54	942.44 ± 0.54
293.15 K, x1 = 0.801	924.6 ± 0.53	928.44 ± 0.53	932.04 ± 0.53	935.46 ± 0.54	938.75 ± 0.54	941.94 ± 0.54	945.09 ± 0.54	948.24 ± 0.55
293.15 K, x1 = 0.8977	929.03 ± 0.53	932.82 ± 0.54	936.35 ± 0.54	939.69 ± 0.54	942.92 ± 0.55	946.09 ± 0.55	949.28 ± 0.55	952.57 ± 0.55
293.15 K, x1 = 0.9283	930.22 ± 0.54	934.07 ± 0.54	937.67 ± 0.54	941.06 ± 0.55	944.32 ± 0.55	947.48 ± 0.55	950.62 ± 0.56	953.79 ± 0.56
293.15 K, x1 = 0.9578	931.42 ± 0.54	935.21 ± 0.54	938.78 ± 0.55	942.2 ± 0.55	945.49 ± 0.55	948.71 ± 0.56	951.88 ± 0.56	955.05 ± 0.56
303.15 K, x1 = 0.03	794.45 ± 0.51	798.97 ± 0.52	803.18 ± 0.53	807.13 ± 0.54	810.87 ± 0.55	814.43 ± 0.56	817.87 ± 0.58	821.22 ± 0.59
303.15 K, x1 = 0.0603	806.55 ± 0.51	811.05 ± 0.52	815.24 ± 0.53	819.16 ± 0.54	822.87 ± 0.55	826.4 ± 0.56	829.79 ± 0.57	833.08 ± 0.58
303.15 K, x1 = 0.1002	820.45 ± 0.51	824.89 ± 0.52	829.01 ± 0.52	832.87 ± 0.53	836.53 ± 0.54	840.03 ± 0.55	843.44 ± 0.56	846.8 ± 0.57
303.15 K, x1 = 0.2021	848.13 ± 0.51	852.39 ± 0.52	856.38 ± 0.52	860.15 ± 0.53	863.75 ± 0.54	867.22 ± 0.54	870.62 ± 0.55	873.98 ± 0.56
303.15 K, x1 = 0.3014	867.56 ± 0.51	871.73 ± 0.52	875.66 ± 0.52	879.39 ± 0.53	882.96 ± 0.53	886.41 ± 0.54	889.8 ± 0.54	893.16 ± 0.55
303.15 K, x1 = 0.4003	882.15 ± 0.51	886.21 ± 0.52	890.08 ± 0.52	893.8 ± 0.53	897.38 ± 0.53	900.86 ± 0.54	904.27 ± 0.54	907.64 ± 0.54
303.15 K, x1 = 0.4499	888.16 ± 0.51	892.11 ± 0.52	895.91 ± 0.52	899.59 ± 0.53	903.17 ± 0.53	906.65 ± 0.53	910.06 ± 0.54	913.41 ± 0.54
303.15 K, x1 = 0.5006	893.42 ± 0.51	897.42 ± 0.52	901.25 ± 0.52	904.92 ± 0.53	908.47 ± 0.53	911.94 ± 0.53	915.35 ± 0.54	918.74 ± 0.54
303.15 K, x1 = 0.5488	897.81 ± 0.52	901.82 ± 0.52	905.64 ± 0.52	909.31 ± 0.53	912.87 ± 0.53	916.34 ± 0.53	919.76 ± 0.54	923.18 ± 0.54
303.15 K, x1 = 0.5998	902.09 ± 0.52	906.13 ± 0.52	909.95 ± 0.52	913.6 ± 0.53	917.13 ± 0.53	920.59 ± 0.54	924.04 ± 0.54	927.53 ± 0.54
303.15 K, x1 = 0.703	909.18 ± 0.52	913.16 ± 0.52	916.96 ± 0.53	920.63 ± 0.53	924.18 ± 0.54	927.67 ± 0.54	931.11 ± 0.54	934.54 ± 0.55
303.15 K, x1 = 0.8012	914.76 ± 0.53	918.73 ± 0.53	922.51 ± 0.53	926.15 ± 0.54	929.69 ± 0.54	933.18 ± 0.55	936.65 ± 0.55	940.15 ± 0.55
303.15 K, x1 = 0.9025	919.51 ± 0.53	923.46 ± 0.54	927.24 ± 0.54	930.9 ± 0.55	934.45 ± 0.55	937.94 ± 0.55	941.4 ± 0.56	944.86 ± 0.56
303.15 K, x1 = 0.9288	920.51 ± 0.54	924.41 ± 0.54	928.15 ± 0.54	931.75 ± 0.55	935.26 ± 0.55	938.73 ± 0.56	942.19 ± 0.56	945.69 ± 0.56
303.15 K, x1 = 0.9594	921.58 ± 0.54	925.48 ± 0.54	929.24 ± 0.55	932.89 ± 0.55	936.45 ± 0.56	939.94 ± 0.56	943.39 ± 0.56	946.82 ± 0.57
313.15 K, x1 = 0.0301	785.54 ± 0.51	790.39 ± 0.52	794.86 ± 0.53	799.04 ± 0.54	802.99 ± 0.55	806.8 ± 0.57	810.55 ± 0.58	814.3 ± 0.6
313.15 K, x1 = 0.0604	797.46 ± 0.51	802.1 ± 0.52	806.49 ± 0.53	810.66 ± 0.54	814.64 ± 0.55	818.45 ± 0.56	822.15 ± 0.58	825.75 ± 0.59
313.15 K, x1 = 0.1009	811.29 ± 0.51	815.85 ± 0.52	820.14 ± 0.53	824.2 ± 0.54	828.09 ± 0.55	831.85 ± 0.56	835.51 ± 0.57	839.13 ± 0.58
313.15 K, x1 = 0.2013	838.49 ± 0.51	842.83 ± 0.52	846.98 ± 0.52	850.95 ± 0.53	854.76 ± 0.54	858.45 ± 0.55	862.02 ± 0.55	865.49 ± 0.56
313.15 K, x1 = 0.302	858.03 ± 0.51	862.37 ± 0.52	866.49 ± 0.52	870.43 ± 0.53	874.22 ± 0.53	877.88 ± 0.54	881.45 ± 0.55	884.95 ± 0.55
313.15 K, x1 = 0.401	872.35 ± 0.51	876.61 ± 0.52	880.69 ± 0.52	884.61 ± 0.53	888.4 ± 0.53	892.06 ± 0.54	895.62 ± 0.54	899.08 ± 0.55
313.15 K, x1 = 0.4507	878.39 ± 0.51	882.61 ± 0.52	886.65 ± 0.52	890.55 ± 0.53	894.31 ± 0.53	897.94 ± 0.54	901.47 ± 0.54	904.89 ± 0.55
313.15 K, x1 = 0.4984	883.4 ± 0.52	887.63 ± 0.52	891.71 ± 0.52	895.63 ± 0.53	899.4 ± 0.53	903.03 ± 0.54	906.52 ± 0.54	909.87 ± 0.55
313.15 K, x1 = 0.553	888.58 ± 0.52	892.77 ± 0.52	896.81 ± 0.52	900.7 ± 0.53	904.45 ± 0.53	908.07 ± 0.54	911.57 ± 0.54	914.96 ± 0.55
313.15 K, x1 = 0.6053	892.9 ± 0.52	897.11 ± 0.52	901.15 ± 0.53	905.03 ± 0.53	908.77 ± 0.53	912.39 ± 0.54	915.89 ± 0.54	919.29 ± 0.55
313.15 K, x1 = 0.7041	899.74 ± 0.52	903.88 ± 0.53	907.89 ± 0.53	911.79 ± 0.53	915.55 ± 0.54	919.19 ± 0.54	922.7 ± 0.55	926.09 ± 0.55
313.15 K, x1 = 0.8027	905.5 ± 0.53	909.63 ± 0.53	913.65 ± 0.54	917.54 ± 0.54	921.29 ± 0.54	924.91 ± 0.55	928.37 ± 0.55	931.68 ± 0.56
313.15 K, x1 = 0.9016	910.19 ± 0.53	914.28 ± 0.54	918.27 ± 0.54	922.15 ± 0.55	925.92 ± 0.55	929.56 ± 0.56	933.08 ± 0.56	936.46 ± 0.56
313.15 K, x1 = 0.9342	911.48 ± 0.54	915.6 ± 0.54	919.6 ± 0.55	923.48 ± 0.55	927.25 ± 0.56	930.89 ± 0.56	934.42 ± 0.56	937.83 ± 0.57
313.15 K, x1 = 0.9607	912.61 ± 0.54	916.71 ± 0.54	920.71 ± 0.55	924.61 ± 0.55	928.4 ± 0.56	932.04 ± 0.56	935.54 ± 0.57	938.88 ± 0.57
